The structures appear in SMILES notation. Where two headings read alike, the source gives them in different places.

The test system of one series is Hep 3B cells. As to the kind of experiment: Inhibition of Hep 3B cell proliferation (CellTiter-Glo). Type of series: cell-based. How it is done:
In this experiment, the inhibitory effect of the compounds on Hep 3B cell proliferation was tested by a CellTiter-Glo method, and the half maximal inhibitory concentration (IC50) of the compounds on the activity of cell proliferation was determined.
1) A 96-well cell culture plate was seeded with 50˜100 μL of Hep 3B cell suspension at a density of 1˜5×10^4 cells/ml. The culture plate was incubated in an incubator for 16˜24 hours (37° C., 5% CO2).
(§1) 2) Different concentrations of the test compound in a gradient dilution were added to the cells in the culture plate. The culture plate was incubated in an incubator for 72 hours (37° C., 5% CO2).
(§2) 3) 50˜100 μL of CellTiter-Glo reagent were added to each well. Then, the culture plate was shaken or left to stand for 5˜30 minutes at room temperature.
(§3) 4) The chemiluminescence signal values of each plate were determined by a microplate reader.
(§4) 5) The inhibition rates were calculated according to the chemiluminescence signal values.

A further series concerns HuH-7 cells. As to the kind of experiment: Inhibition of HuH-7 cell proliferation (CellTiter-Glo). Type of series: cell-based. The note with it: Homo sapiens, Huh-7, 72 h, read-out: HuH-7 IC50. Here is the method:
In this experiment, the inhibitory effect of the compounds on HuH-7 cell proliferation was tested by a CellTiter-Glo method, and the half maximal inhibitory concentration (IC50) of the compounds on the activity of cell proliferation was determined.
1) A 96-well cell culture plate was seeded with 50˜100 μL of HuH-7 cell suspension at a density of 1˜5×10^4 cells/ml. The culture plate was incubated in an incubator for 16˜24 hours (37° C., 5% CO2).
as §1
3) 50˜100 μL of CellTiter-Glo reagent was added to each well. Then, the culture plate was shaken or left to stand for 5˜30 minutes at room temperature.
as §3, §4
(§5) 6) The IC50 of the compound was obtained by curve fitting according to the inhibition rates at different concentrations, and the cell activity of the specific example compounds is shown in Table 2.

The next series has as its system SK-HEP-1 cells. As to the kind of experiment: Inhibition of SK-HEP-1 cell proliferation (CellTiter-Glo). The format is cell-based. The note with it: read-out: SK-HEP-1 IC50. How it is done:
In this experiment, the inhibitory effect of the compounds on SK-HEP-1 cell proliferation was tested by a CellTiter-Glo method, and the half maximal inhibitory concentration (IC50) of the compounds on the activity of cell proliferation was determined.
1) A 96-well cell culture plate was seeded with 50˜100 μL of SK-HEP-1 cell suspension at a density of 1˜5×10^4 cells/ml. The culture plate was incubated in an incubator for 16˜24 hours (37° C., 5% CO2).
as §1, §2, §3, §4, §5

Series [1] can be described thus: Pharmacokinetic (PK) analysis in rats. Type of series: in vivo, Sprague Dawley (SD) rats. The note with it: SD rats, single intragastric administration, 5 mg/kg; for Peak Time tmax: (sampling in hours); for AUC(0-t) / AUC(0-inf) / half-life / MRT / Cmax: Sprague-Dawley, rat, plasma, po; for AUC(0-t): read-out: Area Under Curve AUC0-t; for AUC(0-inf): read-out: Area Under Curve AUC0-∞; for half-life: read-out: Half-Time t1/2 (converted); for MRT: read-out: Mean Residence Time MRT; for Cmax: read-out: Plasma Concentration Cmax. Here is the method:
1) 0.2 ml of intravenous blood was collected and placed in a K2EDTA test tube. The blood was centrifuged at room temperature at the speed of 1000˜3000×g for 5˜20 minutes to isolate the plasma, which was then stored at −80° C.
2) 160 μL of acetonitrile was added to 40 μL of plasma sample for precipitation, and then the mixture was centrifuged at the speed of 500˜2000×g for 5˜20 minutes.
3) 100 μL of treated solution was taken, and the concentration of the test compound was analyzed by LC/MS/MS. The LC/MS/MS analytical instrument was AB Sciex API 4000. • Liquid chromatography analysis: • Condition of Liquid chromatography: Shimadzu LC-20AD pump • Chromatographic column: phenomenex Gemiu 5 um C18 50×4.6 mm • Mobile phase: Solution A is 0.1% formic acid aqueous solution, and Solution B is acetonitrile • Flow rate: 0.8 mL/min • Elution time: 0-3.5 minutes, the eluent was used as follows: […]

Another series has as its target FGFR1 kinase (Homo sapiens (Human), UniProt P11362). The experiment in a line: Enzymologic experiment of FGFR1 (TR-FRET). The format is biochemical. Particulars: FGFR1 kinase activity. Here is the method: In this experiment, the inhibitory effect of the compounds on FGFR1 kinase activity was tested by a fluorescence resonance energy transfer (TR-FRET) method, and the half maximal inhibitory concentration (IC50) of the compounds on the FGFR1 kinase activity was determined.
1) 1˜5 μL of FGFR1 enzyme solution was added to a 384-well plate, and the final concentration of the enzyme was 0.1˜5 nM.
2) 1˜5 μL of diluted solution in gradient of the compound was added.
3) 1˜5 μL of a substrate mixture containing substrate polypeptide with a final concentration of 5˜50 nM and ATP with a final concentration of 10˜200 μM was added.
4) The mixture was incubated for 0.5˜3 hours at room temperature.
5) 10 μL of EDTA and a test solution comprising labeled antibody were added, and the plate was incubated for 1 hour at room temperature.
6) The fluorescence signal values of each plate were determined by a microplate reader at 665 nm.
7) The inhibition rates were calculated according to the fluorescence signal values.
8) The IC50 of the compound was obtained by curve fitting according to the inhibition rates at different concentrations, and the enzymatic activity of the specific example compounds is shown in Table 1.

The mark [2] stands for this setting: Homo sapiens, Hep3B, 72 h, read-out: Hep 3B IC50, Hep 3B cell proliferation, 72 hours, CellTiter-Glo.

Chain of FGFR1 kinase (P11362 22-822): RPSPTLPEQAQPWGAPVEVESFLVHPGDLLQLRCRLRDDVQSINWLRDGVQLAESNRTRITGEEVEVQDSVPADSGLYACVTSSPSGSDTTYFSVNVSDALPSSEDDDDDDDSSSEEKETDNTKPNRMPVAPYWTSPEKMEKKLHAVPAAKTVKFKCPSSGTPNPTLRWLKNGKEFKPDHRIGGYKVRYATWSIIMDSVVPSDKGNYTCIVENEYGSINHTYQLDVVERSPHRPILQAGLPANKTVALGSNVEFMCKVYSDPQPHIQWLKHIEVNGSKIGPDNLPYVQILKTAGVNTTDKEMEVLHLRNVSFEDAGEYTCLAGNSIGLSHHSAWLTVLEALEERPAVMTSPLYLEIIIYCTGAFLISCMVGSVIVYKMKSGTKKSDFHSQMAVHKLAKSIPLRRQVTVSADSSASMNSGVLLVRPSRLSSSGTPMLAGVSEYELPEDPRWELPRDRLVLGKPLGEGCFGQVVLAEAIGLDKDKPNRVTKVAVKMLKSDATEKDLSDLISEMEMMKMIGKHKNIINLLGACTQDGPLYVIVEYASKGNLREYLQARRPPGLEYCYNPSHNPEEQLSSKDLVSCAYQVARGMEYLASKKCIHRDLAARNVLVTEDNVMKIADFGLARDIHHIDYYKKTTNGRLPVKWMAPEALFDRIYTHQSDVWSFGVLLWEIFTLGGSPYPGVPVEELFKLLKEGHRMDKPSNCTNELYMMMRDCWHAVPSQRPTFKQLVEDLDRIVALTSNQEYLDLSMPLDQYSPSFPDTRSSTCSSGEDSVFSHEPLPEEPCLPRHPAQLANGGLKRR

With `CO[C@@H]1CCCC1Nc1cc(NC(=O)N2CCCc3cc(CN4CCOCC4=O)c(C=O)nc32)ncc1C#N` (stereo partly drawn) [Example 1, N-(5-Cyano-4-(((trans)-2-methoxycyclopentyl)amino)pyridin-2-yl)-7-formyl-6-((3-carbonylmorpholino)methyl)-3,4-dihydro-1,8-naphthyridin-1(2H)-carboxamide], the IC50 in the series with Hep 3B cells (setting [2]) came to 0.7 nM. Also, the IC50 with HuH-7 cells was 3 nM. In the series with SK-HEP-1 cells (Homo sapiens, SK-HEP1, 72 h), the IC50 was above 10000 nM. For the same compound, in series [1], the Peak Time tmax came to 0.5 h, the AUC(0-t) was 1010 ng·h/mL, the AUC(0-inf) stood at 5040 ng·h/mL and the half-life is 1.1 h. For the same compound, in series [1], the MRT is 1.1 h and the Cmax came out at 1140 ng/mL.

On to `N#Cc1cnc(NC(=O)N2CCCc3cc(CN4CCOCC4=O)c(C=O)nc32)cc1NCCOC1CCCC1` [Example 5, N-(5-Cyano-4-((2-(cyclopentyloxy)ethyl)amino)pyridin-2-yl)-7-formyl-6-((3-carbonylmorpholino)methyl)-3,4-dihydro-1,8-naphthyridin-1(2H)-carboxamide], for which the IC50 at FGFR1 kinase is above 10000 nM; in the series with Hep 3B cells (setting [2]) it was 8.2 nM; with HuH-7 cells, 34.9 nM; in the series with SK-HEP-1 cells (Homo sapiens, SK-HEP1, 72 h) it was above 10000 nM.

With `COC1(CNc2cc(NC(=O)N3CCCc4cc(CN5CCOCC5=O)c(C=O)nc43)ncc2C#N)CC1` [Example 9, N-(5-Cyano-4-(((1-methoxycyclopropyl)methyl)amino)pyridin-2-yl)-7-formyl-6-((3-carbonylmorpholino)methyl)-3,4-dihydro-1,8-naphthyridin-1(2H)-carboxamide], the IC50 against FGFR1 kinase was above 10000 nM; in the series on Hep 3B cells (setting [2]), 1.4 nM; with HuH-7 cells, 9.1 nM; in the series on SK-HEP-1 cells (Homo sapiens, SK-HEP1, 72 h) it was above 10000 nM.

In the case of `CO[C@H]1CCCC1Nc1cc(NC(=O)N2CCCc3cc(CN4CCOCC4=O)c(C=O)nc32)ncc1C#N` (stereo partly drawn) [Example 15, N-(5-Cyano-4-(((cis)-2-methoxycyclopentyl)amino)pyridin-2-yl)-7-formyl-6-((3-carbonylmorpholino)methyl)-3,4-dihydro-1,8-naphthyridin-1(2H)-carboxamide], the IC50 on FGFR1 kinase is above 10000 nM; in the series on Hep 3B cells (setting [2]), 3 nM; in the series on HuH-7 cells it was 4.9 nM; in the series with SK-HEP-1 cells (Homo sapiens, SK-HEP1, 72 h) it was above 10000 nM.

Take `CO[C@@H]1CCN(c2cc(NC(=O)N3CCCc4cc(CN5CCCCOC5=O)c(C=O)nc43)ncc2C#N)C1` [Example 31, (R)-N-(5-Cyano-4-(3-methoxypyrrolidin-1-yl)pyridin-2-yl)-7-formyl-6-((2-carbonyl-1,3-oxazepin-3-yl)methyl)-3,4-dihydro-1,8-naphthyridin-1(2H)-carboxamide]: on FGFR1 kinase, the IC50 is above 10000 nM. Further, the IC50 with HuH-7 cells was found to be 6.5 nM. Further, the IC50 with SK-HEP-1 cells (Homo sapiens, SK-HEP1, 72 h) was above 10000 nM. Moreover, in series [1], the Peak Time tmax was found to be 2 h, the AUC(0-t) worked out at 1920 ng·h/mL, the AUC(0-inf) was 1920 ng·h/mL and the half-life was 1.27 h. Also, in series [1], the mean residence time (MRT) amounted to 4.54 h and the Cmax amounted to 3720 ng/mL.

`CO[C@H]1CCN(c2cc(NC(=O)N3CCCc4cc(CN5CCCCOC5=O)c(C=O)nc43)ncc2C#N)C1` [Example 32]: the IC50 at FGFR1 kinase is above 10000 nM; in the series on Hep 3B cells (setting [2]) it was 3.1 nM; with HuH-7 cells it was 5.8 nM; in the series with SK-HEP-1 cells (Homo sapiens, SK-HEP1, 72 h), above 10000 nM.

`N#Cc1cnc(NC(=O)N2CCCc3cc(CN4CCCCOC4=O)c(C=O)nc32)cc1N[C@H]1CCOC1` [Example 33]: the IC50 on FGFR1 kinase is above 10000 nM; in the series with Hep 3B cells (setting [2]), 3.7 nM; in the series on HuH-7 cells, 7.2 nM; in the series with SK-HEP-1 cells (Homo sapiens, SK-HEP1, 72 h), above 10000 nM.

Consider `N#Cc1cnc(NC(=O)N2CCCc3cc(CN4CCCCOC4=O)c(C=O)nc32)cc1N[C@@H]1CCOC1` [Example 34, (R)-N-(5-Cyano-4-((tetrahydrofuran-3-yl)amino)pyridin-2-yl)-7-formyl-6-((2-carbonyl-1,3-oxazepin-3-yl)methyl)-3,4-dihydro-1,8-naphthyridin-1(2H)-carboxamide], for which the IC50 at FGFR1 kinase was above 10000 nM; with Hep 3B cells (setting [2]), 2.3 nM; with HuH-7 cells it was 4.9 nM; in the series with SK-HEP-1 cells (Homo sapiens, SK-HEP1, 72 h), above 10000 nM.

Turning to `COC[C@@H](C)Oc1cc(NC(=O)N2CCCc3cc(CN4CCCCOC4=O)c(C=O)nc32)ncc1C#N` [Example 35], the IC50 is above 10000 nM against FGFR1 kinase; 2.2 nM in the series with Hep 3B cells (setting [2]); 4.6 nM with HuH-7 cells; above 10000 nM in the series with SK-HEP-1 cells (Homo sapiens, SK-HEP1, 72 h).

As for `CO[C@H]1CCN(c2cc(NC(=O)N3CCCc4cc(CN5C(=O)OC[C@@H]5C)c(C=O)nc43)ncc2C#N)C1` [Example 39, N-(5-Cyano-4-((S)-3-methoxypyrrolidin-1-yl)pyridin-2-yl)-7-formyl-6-(((S)-4-methyl-2-carbonyloxazolidin-3-yl)methyl)-3,4-dihydro-1,8-naphthyridin-1(2H)-carboxamide], the IC50 was above 10000 nM against FGFR1 kinase; 39.3 nM in the series on Hep 3B cells (setting [2]); 34.6 nM in the series on HuH-7 cells; above 10000 nM with SK-HEP-1 cells (Homo sapiens, SK-HEP1, 72 h).

Turning to `CO[C@@H]1CCN(c2cc(NC(=O)N3CCCc4cc(CN5CCCOC5=O)c(C=O)nc43)ncc2C#N)C1` [Example 49, (R)-N-(5-Cyano-4-(3-methoxypyrrolidin-1-yl)pyridin-2-yl)-7-formyl-6-((2-carbonyl-1,3-oxazinan-3-yl)methyl)-3,4-dihydro-1,8-naphthyridin-1(2H)-carboxamide], the IC50 on FGFR1 kinase is above 10000 nM; with Hep 3B cells (setting [2]), 4.4 nM; in the series with HuH-7 cells, 11.3 nM; in the series with SK-HEP-1 cells (Homo sapiens, SK-HEP1, 72 h), above 10000 nM.

As to `COC1CN(c2cc(NC(=O)N3CCCc4cc(CN5CCOCC5=O)c(C=O)nc43)ncc2C#N)C1` [Example 53, N-(5-Cyano-4-(3-methoxyazetidin-1-yl)pyridin-2-yl)-7-formyl-6-((3-carbonylmorpholino)methyl)-3,4-dihydro-1,8-naphthyridin-1(2H)-carboxamide], the IC50 was above 10000 nM at FGFR1 kinase; 41.5 nM in the series with Hep 3B cells (setting [2]); above 10000 nM in the series with SK-HEP-1 cells (Homo sapiens, SK-HEP1, 72 h).

Take `CO[C@H]1CCOCC1Oc1cc(NC(=O)N2CCCc3cc(CN4CCOCC4=O)c(C=O)nc32)ncc1C#N` (stereo partly drawn) [Example 69, N-(5-Cyano-4-(((3,4)-trans-3-methoxytetrahydro-2H-pyran-4-yl)oxy)pyridin-2-yl) -7-formyl-6-((3-carbonylmorpholino)methyl)-3,4-dihydro-1,8-naphthyridin-1(2H)-carboxamide]: the IC50 in the series with Hep 3B cells (read-out: Hep 3B IC50, Hep 3B cell proliferation, 72 hours, CellTiter-Glo) was 22.6 nM; in the series on SK-HEP-1 cells (SK-HEP-1 cell proliferation, 72 hours, CellTiter-Glo) it was above 10000 nM.

Source of the values: patent US11667631B2, “FGFR4 inhibitor, preparation method therefor, and applications thereof” (Jiangsu Hansoh Pharmaceutical Group Co., Ltd., priority 2016, dated 2023).
